Results reported in patent US9957247B2, “SecA inhibitors and methods of making and using thereof” (Georgia State University Research Foundation, Inc., priority 2012, dated 2018).
Converted amounts (≈) assume the structure as drawn. Like-named read-outs stand apart in the source and are kept apart here.

Tests used:
S. aureus Mu50 = assay: Bacteriostatic effect, S. aureus Mu50; conditions: for MIC: Staphylococcus aureus; for Bacteriostatic MIC95, S. aureus Mu50: Table 2
B. anthracis Sterne = assay: microbe, parasite or virus in culture; type: cell-based; conditions: for MIC: Bacillus anthracis, read-out: Bacteriostatic MIC95, B. anthracis Sterne
B. subtilis 168 = assay: Bacteriostatic effect, liquid microdilution, B. subtilis 168; type: cell-based; conditions: Bacillus subtilis, Example 2
BsSecA = BsSecA (Bacillus subtilis, UniProt P28366); assay: cell-based; parameters: species or system B. subtilis; conditions: Ion channel, IC50, BsSecA, Table 5
EcSecA = EcSecA (Escherichia coli, UniProt P10408); assay: cell-based
EcSecA N68 = EcSecA N68 (Escherichia coli, UniProt P10408); assay: biochemical; type: biochemical, E. coli
[1] = MU50, read-out: Bacteriostatic MIC95, S. aureus Mu50, Table 2
[2] = MU50, read-out: Bacteriostatic effect MIC, S. aureus Mu50, Table 10 and Example 4
[3] = Ion channel, IC50, EcSecA, Table 5
[4] = MU50, read-out: MIC95 against drug resistant S. aureus Mu50

EcSecA, sequence (P10408 whole entry): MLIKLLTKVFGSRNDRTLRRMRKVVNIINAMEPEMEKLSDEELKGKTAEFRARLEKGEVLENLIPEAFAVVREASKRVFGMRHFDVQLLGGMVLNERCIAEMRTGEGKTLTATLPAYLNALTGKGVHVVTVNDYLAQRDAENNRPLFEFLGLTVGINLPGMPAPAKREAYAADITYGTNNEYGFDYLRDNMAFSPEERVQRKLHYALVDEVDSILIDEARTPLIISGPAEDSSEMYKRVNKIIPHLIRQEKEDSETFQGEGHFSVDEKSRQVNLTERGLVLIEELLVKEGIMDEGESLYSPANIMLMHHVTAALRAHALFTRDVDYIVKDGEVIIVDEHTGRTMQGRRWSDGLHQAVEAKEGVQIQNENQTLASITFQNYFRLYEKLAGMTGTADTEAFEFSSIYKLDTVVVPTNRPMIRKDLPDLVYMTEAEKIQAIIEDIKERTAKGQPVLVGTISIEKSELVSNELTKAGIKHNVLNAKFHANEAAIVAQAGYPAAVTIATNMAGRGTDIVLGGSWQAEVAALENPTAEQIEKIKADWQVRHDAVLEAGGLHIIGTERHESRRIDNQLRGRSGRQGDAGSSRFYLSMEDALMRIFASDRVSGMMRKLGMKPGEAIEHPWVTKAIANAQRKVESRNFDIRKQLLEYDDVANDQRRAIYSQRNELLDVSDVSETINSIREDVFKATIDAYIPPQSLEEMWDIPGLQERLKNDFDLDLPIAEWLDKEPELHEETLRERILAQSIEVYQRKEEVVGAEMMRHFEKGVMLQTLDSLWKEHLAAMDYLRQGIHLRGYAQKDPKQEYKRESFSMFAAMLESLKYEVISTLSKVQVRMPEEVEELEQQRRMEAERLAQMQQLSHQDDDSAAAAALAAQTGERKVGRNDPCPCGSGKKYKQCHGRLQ
BsSecA, sequence (P28366 whole entry): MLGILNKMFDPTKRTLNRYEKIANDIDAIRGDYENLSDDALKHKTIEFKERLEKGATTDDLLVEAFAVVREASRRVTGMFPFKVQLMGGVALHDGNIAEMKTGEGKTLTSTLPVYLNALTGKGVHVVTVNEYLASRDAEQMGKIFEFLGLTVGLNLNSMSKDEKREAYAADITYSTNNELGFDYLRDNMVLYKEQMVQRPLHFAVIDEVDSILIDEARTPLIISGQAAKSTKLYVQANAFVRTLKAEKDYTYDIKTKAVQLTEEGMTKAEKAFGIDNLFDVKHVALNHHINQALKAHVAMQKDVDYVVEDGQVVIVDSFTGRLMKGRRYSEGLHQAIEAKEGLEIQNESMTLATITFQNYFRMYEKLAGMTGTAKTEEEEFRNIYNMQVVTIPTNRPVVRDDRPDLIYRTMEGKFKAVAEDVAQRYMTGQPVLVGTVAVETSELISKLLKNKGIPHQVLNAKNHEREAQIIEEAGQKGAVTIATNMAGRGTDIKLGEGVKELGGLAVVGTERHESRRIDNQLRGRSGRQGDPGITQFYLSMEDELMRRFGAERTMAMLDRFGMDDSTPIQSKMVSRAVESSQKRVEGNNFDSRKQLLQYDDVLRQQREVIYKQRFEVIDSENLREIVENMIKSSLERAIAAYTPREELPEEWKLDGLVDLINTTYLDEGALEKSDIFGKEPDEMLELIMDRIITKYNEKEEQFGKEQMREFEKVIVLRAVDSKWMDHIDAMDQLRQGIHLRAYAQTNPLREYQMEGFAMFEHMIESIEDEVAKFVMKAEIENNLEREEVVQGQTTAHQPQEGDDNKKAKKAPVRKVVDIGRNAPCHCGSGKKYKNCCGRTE
EcSecA N68, sequence (P10408 1-610): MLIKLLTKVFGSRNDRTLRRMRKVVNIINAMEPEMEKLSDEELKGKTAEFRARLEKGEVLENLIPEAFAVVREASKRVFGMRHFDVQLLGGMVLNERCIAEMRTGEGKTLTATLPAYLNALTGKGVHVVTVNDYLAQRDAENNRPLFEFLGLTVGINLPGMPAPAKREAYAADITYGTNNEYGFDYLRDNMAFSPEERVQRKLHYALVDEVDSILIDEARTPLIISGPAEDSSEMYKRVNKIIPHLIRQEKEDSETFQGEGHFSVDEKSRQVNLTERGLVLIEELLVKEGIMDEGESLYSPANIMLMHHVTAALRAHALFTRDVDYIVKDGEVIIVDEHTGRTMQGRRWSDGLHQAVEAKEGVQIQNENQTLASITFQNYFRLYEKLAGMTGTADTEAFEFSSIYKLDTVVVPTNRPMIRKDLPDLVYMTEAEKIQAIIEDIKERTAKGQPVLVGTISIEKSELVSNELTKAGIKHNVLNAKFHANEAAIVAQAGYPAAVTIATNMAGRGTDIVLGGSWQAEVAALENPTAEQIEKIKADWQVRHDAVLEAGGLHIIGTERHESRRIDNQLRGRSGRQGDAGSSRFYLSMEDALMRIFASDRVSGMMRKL

For CC1(C)S[C@@H]2[C@H](NC(=O)[C@H](N)c3ccccc3)C(=O)N2[C@H]1C(=O)O [Ampicillin], the MIC (S. aureus Mu50; [1]) was 7.8 µg/mL, the MIC (S. aureus Mu50; [2]) was 1000 µg/mL and the MIC (B. anthracis Sterne) was over 20 µg/mL.
With O=C(N[C@H](CO)[C@H](O)c1ccc([N+](=O)[O-])cc1)C(Cl)Cl [Chloramphenic] the “Bacteriostatic MIC95, S. aureus Mu50” value (S. aureus Mu50) was over 40 µg/mL and the “Bacteriostatic MIC95, B. anthracis Sterne” value (B. anthracis Sterne) was 10 µg/mL.
In the case of Oc1ccc2c(c1)Oc1cc(O)ccc1C2C1CCCC1 [Compound 22a, 9-Cyclopentyl-9H-xanthene-3,6-diol], the MIC (B. subtilis 168) is reported as 25 µM (≈ 7.06 µg/mL), the IC50 (BsSecA) is reported as 3000 nM and the IC50 (EcSecA; [3]) is reported as 3400 nM.
For CC(C)C1c2ccc(O)cc2Oc2cc(O)ccc21 [Compound 22b, 9-Isopropyl-9H-xanthene-3,6-diol], the MIC (B. subtilis 168) was 75 µM (≈ 19.2 µg/mL), the IC50 (BsSecA) was 4900 nM and the IC50 (EcSecA) was 4300 nM.
With CCCCCCC1c2ccc(O)cc2Oc2cc(O)ccc21 [Compound 22c, 9-Hexyl-9H-xanthene-3,6-diol] the MIC (B. subtilis 168) was 13 µM (≈ 3.88 µg/mL), the IC50 (BsSecA) was 2500 nM and the IC50 (EcSecA; [3]) was 2300 nM.
Compound Oc1c(Br)cc2c(c1Br)Oc1c(cc(Br)c(O)c1Br)C2C1CCCC1 [Compound 23a, 2,4,5,7-Tetrabromo-9-cyclopentyl-9H-xanthene-3,6-diol] has an MIC (B. subtilis 168) of 22 µM (≈ 13.2 µg/mL), an IC50 (BsSecA) of 2400 nM and an IC50 (EcSecA) of 2300 nM.
Oc1c(I)cc2c(c1I)Oc1c(cc(I)c(O)c1I)C2C1CCCC1 [Compound 23b, 9-Cyclopentyl-2,4,5,7-tetraiodo-9H-xanthene-3,6-diol] gave an MIC (B. subtilis 168) of 6 µM (≈ 4.72 µg/mL), an IC50 (BsSecA) of 3800 nM and an IC50 (EcSecA) of 2500 nM.
In the case of Oc1cc2c(cc1I)C(C1CCCC1)c1cc(I)c(O)c(I)c1O2 (stereo not shown) [Compound 23c], the MIC (B. subtilis 168) is reported as 6 µM (≈ 3.96 µg/mL), the IC50 (BsSecA) is reported as 2800 nM and the IC50 (EcSecA) is reported as 2200 nM.
CC(C)C1c2cc(I)c(O)c(I)c2Oc2c1cc(I)c(O)c2I [Compound 23d, 2,4,5,7-Tetraiodo-9-isopropyl-9H-xanthene-3,6-diol] showed an MIC (B. subtilis 168) of 6 µM (≈ 4.56 µg/mL), an IC50 (BsSecA) of 2500 nM and an IC50 (EcSecA) of 2800 nM.
CN(C)c1ccc2c(c1)Oc1cc(N(C)C)ccc1C2C1CCCC1 [Compound 30, 9-Cyclopentyl-N3,N3,N6,N6-tetramethyl-9H-xanthene-3,6-diamine] was tested, and the “Inhibition of EcSecA N68 ATPase, initial screening” value (EcSecA N68; 100 μM, FIG. 1) was “weak or no activity”.
O=C(O)c1ccccc1-c1c2ccc(=O)c(I)c-2oc2c(I)c(O)ccc12 [DI, Diiodofluorescein, reference compound] showed an IC50 (EcSecA N68; read-out: IC50, EcN68 SecA ATPase (unregulated ATPase)) of 30000 nM.
In the case of CC[C@H]1OC(=O)[C@H](C)[C@@H](O[C@H]2C[C@@](C)(OC)[C@@H](O)[C@H](C)O2)[C@H](C)[C@@H](O[C@@H]2O[C@H](C)C[C@H](N(C)C)[C@H]2O)[C@](C)(O)C[C@@H](C)C(=O)[C@H](C)[C@@H](O)[C@]1(C)O [Erythromycin], the MIC (S. aureus Mu50; [1]) is reported as over 500 µg/mL, the MIC (S. aureus Mu50; [2]) is reported as over 1250 µg/mL and the MIC (S. aureus Mu50; [4]) is reported as over 100 µM. It also gave an MIC (B. anthracis Sterne) of 0.3 µg/mL (≈ 0.409 µM).
For NC[C@H]1O[C@H](O[C@H]2[C@H](O)[C@@H](O[C@H]3O[C@H](CO)[C@@H](O)[C@H](N)[C@H]3O)[C@H](N)C[C@@H]2N)[C@H](O)[C@@H](O)[C@@H]1O [Kanamycin], the MIC (S. aureus Mu50; [2]) was 1000 µg/mL and the MIC (S. aureus Mu50; [4]) was over 100 µM.
In the case of CCn1cc(C(=O)O)c(=O)c2cc(F)c(N3CCNCC3)cc21 [Norfloxacin], the MIC (S. aureus Mu50; [2]) is reported as 250 µg/mL.
CO[C@H]1/C=C/O[C@@]2(C)Oc3c(C)c(O)c4c(O)c(c(/C=N/N5CCN(C)CC5)c(O)c4c3C2=O)NC(=O)/C(C)=C\C=C\[C@H](C)[C@H](O)[C@@H](C)[C@@H](O)[C@@H](C)[C@H](OC(C)=O)[C@@H]1C [Rifampicin] was tested, and the MIC (S. aureus Mu50; [2]) was over 1000 µg/mL.
Work on CN(C)[C@@H]1C(O)=C(C(N)=O)C(=O)[C@@]2(O)C(O)=C3C(=O)c4c(O)cccc4[C@@](C)(O)[C@H]3C[C@@H]12 [Tetracycline] yielded an MIC (S. aureus Mu50; [1]) of 200 µg/mL, an MIC (S. aureus Mu50; [2]) of 62.5 µg/mL and an MIC (S. aureus Mu50; [4]) of over 100 µM. For the same compound, the MIC (B. anthracis Sterne) was 0.1 µg/mL (≈ 0.225 µM).
In the case of CN[C@H](CC(C)C)C(=O)N[C@H]1C(=O)N[C@@H](CC(N)=O)C(=O)N[C@H]2C(=O)N[C@H]3C(=O)N[C@H](C(=O)N[C@H](C(=O)O)c4cc(O)cc(O)c4-c4cc3ccc4O)[C@H](O)c3ccc(c(Cl)c3)Oc3cc2cc(c3O[C@@H]2O[C@H](CO)[C@@H](O)[C@H](O)[C@H]2O[C@H]2C[C@](C)(N)[C@H](O)[C@H](C)O2)Oc2ccc(cc2Cl)[C@H]1O [Vancomycin], the MIC (S. aureus Mu50; MU50, read-out: Bacteriostatic MIC95, S. aureus Mu50) is reported as 5 µg/mL, the MIC (S. aureus Mu50; MU50, read-out: Bacteriostatic effect MIC, S. aureus Mu50) is reported as 7.8 µg/mL and the MIC (S. aureus Mu50; [4]) is reported as 5 µM. The MIC (B. anthracis Sterne) was 2.5 µg/mL (≈ 1.73 µM).
Gentamycin was tested, and the “Bacteriostatic MIC95, S. aureus Mu50” value (S. aureus Mu50) was over 500 µg/mL and the “Bacteriostatic MIC95, B. anthracis Sterne” value (B. anthracis Sterne; Table 2) was 5 µg/mL.
With Polymyxin B the “Bacteriostatic MIC95, S. aureus Mu50” value (S. aureus Mu50) was 15 µg/mL, the “Bacteriostatic effect MIC, S. aureus Mu50” value (S. aureus Mu50; Table 10 and text of Example 4) was 31.3 µg/mL and the “Bacteriostatic MIC95, B. anthracis Sterne” value (B. anthracis Sterne; Table 2) was 10 µg/mL.
